ChEMBL document CHEMBL3885881, “DrugMatrix”

Species on record: Rattus norvegicus
Assay: DrugMatrix - Regimen: Daily Repeat
Assay type: toxicity, organism-based, Sprague-Dawley
Set-up: regimen Daily Repeat, gender Male, age 6-8 weeks
Conditions: in vivo, po, route oral GAVAGE, vehicle .5 % CMC; for ABSOLUTE BASOPHIL / ABSOLUTE EOSINOPHIL / ABSOLUTE LYMPHOCYTE / ABSOLUTE MONOCYTE / ABSOLUTE SEGMENTED NEUTROPHIL / BASOPHIL / EOSINOPHIL / ERYTHROCYTE COUNT / HEMATOCRIT / HEMOGLOBIN / LEUKOCYTE COUNT / LYMPHOCYTE / MEAN CORPUSCULAR HEMOGLOBIN / MEAN CORPUSCULAR HEMOGLOBIN CONCENTRATION / MEAN CORPUSCULAR VOLUME / MONOCYTE / NEUTROPHIL / NUCLEATED RED BLOOD CELLS / PLATELET COUNT: tissue Blood; for ALANINE AMINOTRANSFERASE / ALBUMIN / ALKALINE PHOSPHATASE / ASPARTATE AMINOTRANSFERASE / BLOOD UREA NITROGEN / CARBON DIOXIDE / CHLORIDE / CHOLESTEROL / CREATINE PHOSPHOKINASE / CREATININE / GLUCOSE / LACTATE DEHYDROGENASE / LIPASE / PHOSPHORUS / POTASSIUM / SODIUM / TOTAL BILIRUBIN / TOTAL PROTEIN / URIC ACID: tissue Plasma
[1] = 0 mg/kg, 72 h, dose level Control, time 3 day
[2] = 0 mg/kg, 120 h, dose level Control, time 5 day
[3] = 20 mg/kg, 72 h, dose level Low, time 3 day
[4] = 20 mg/kg, 120 h, dose level Low, time 5 day

SMILES: Clc1ccc2c(c1)C(N1CCNCC1)=Nc1ccccc1O2 [AMOXAPINE]
- ABSOLUTE BASOPHIL [1]: 0 CELLS/uL
- ABSOLUTE EOSINOPHIL [1]: 32.5 CELLS/uL
- ABSOLUTE LYMPHOCYTE [1]: 13494.17 CELLS/uL
- ABSOLUTE MONOCYTE [1]: 474 CELLS/uL
- ABSOLUTE SEGMENTED NEUTROPHIL [1]: 1932.67 CELLS/uL
- BASOPHIL [1]: 0%
- EOSINOPHIL [1]: 0.17%
- ERYTHROCYTE COUNT [1]: 5.45 x10E6/uL
- HEMATOCRIT [1]: 34.32%
- HEMOGLOBIN [1]: 13.82 G/DL
- LEUKOCYTE COUNT [1]: 15.93 x10E3/uL
- LYMPHOCYTE [1]: 84.83%
- MEAN CORPUSCULAR HEMOGLOBIN [1]: 25.38 pg
- MEAN CORPUSCULAR HEMOGLOBIN CONCENTRATION [1]: 40.27 G/DL
- MEAN CORPUSCULAR VOLUME [1]: 63.05 fL
- MONOCYTE [1]: 3%
- NEUTROPHIL [1]: 12%
- NUCLEATED RED BLOOD CELLS [1]: 0.67 /100WBC
- PLATELET COUNT [1]: 1188.5 x10E3/uL
- ALANINE AMINOTRANSFERASE [1]: 54.83 u/L
- ALBUMIN [1]: 4.22 G/DL
- ALKALINE PHOSPHATASE [1]: 427.67 u/L
- ASPARTATE AMINOTRANSFERASE [1]: 86.5 u/L
- BLOOD UREA NITROGEN [1]: 15.33 mg/dL
- CARBON DIOXIDE [1]: 24.83 mmol/L
- CHLORIDE [1]: 102.33 MEQ/L
- CHOLESTEROL [1]: 71.67 mg/dL
- CREATINE PHOSPHOKINASE [1]: 442.5 u/L
- CREATININE [1]: 0.19 mg/dL
- GLUCOSE [1]: 160.67 mg/dL
- LACTATE DEHYDROGENASE [1]: 236.5 u/L
- LIPASE [1]: 9 u/L
- PHOSPHORUS [1]: 11.97 mg/dL
- POTASSIUM [1]: 6.2 MEQ/L
- SODIUM [1]: 142.85 MEQ/L
- TOTAL BILIRUBIN [1]: 0.2 mg/dL
- TOTAL PROTEIN [1]: 5.8 G/DL
- URIC ACID [1]: 1.3 mg/dL
- ABSOLUTE BASOPHIL [2]: 0 CELLS/uL
- ABSOLUTE EOSINOPHIL [2]: 114.5 CELLS/uL
- ABSOLUTE LYMPHOCYTE [2]: 14614 CELLS/uL
- ABSOLUTE MONOCYTE [2]: 173 CELLS/uL
- ABSOLUTE SEGMENTED NEUTROPHIL [2]: 1048.5 CELLS/uL
- BASOPHIL [2]: 0%
- EOSINOPHIL [2]: 0.67%
- ERYTHROCYTE COUNT [2]: 5.66 x10E6/uL
- HEMATOCRIT [2]: 35.52%
- HEMOGLOBIN [2]: 14.27 G/DL
- LEUKOCYTE COUNT [2]: 15.95 x10E3/uL
- LYMPHOCYTE [2]: 91.33%
- MEAN CORPUSCULAR HEMOGLOBIN [2]: 25.23 pg
- MEAN CORPUSCULAR HEMOGLOBIN CONCENTRATION [2]: 40.2 G/DL
- MEAN CORPUSCULAR VOLUME [2]: 62.7 fL
- MONOCYTE [2]: 1.17%
- NEUTROPHIL [2]: 6.83%
- NUCLEATED RED BLOOD CELLS [2]: 0.33 /100WBC
- PLATELET COUNT [2]: 1229 x10E3/uL
- ALANINE AMINOTRANSFERASE [2]: 58.67 u/L
- ALBUMIN [2]: 4.32 G/DL
- ALKALINE PHOSPHATASE [2]: 382.5 u/L
- ASPARTATE AMINOTRANSFERASE [2]: 81.67 u/L
- BLOOD UREA NITROGEN [2]: 17.67 mg/dL
- CARBON DIOXIDE [2]: 27.17 mmol/L
- CHLORIDE [2]: 102.33 MEQ/L
- CHOLESTEROL [2]: 63.67 mg/dL
- CREATINE PHOSPHOKINASE [2]: 227.67 u/L
- CREATININE [2]: 0.23 mg/dL
- GLUCOSE [2]: 155.33 mg/dL
- LACTATE DEHYDROGENASE [2]: 146.5 u/L
- LIPASE [2]: 10.67 u/L
- PHOSPHORUS [2]: 11.93 mg/dL
- POTASSIUM [2]: 6.85 MEQ/L
- SODIUM [2]: 143.95 MEQ/L
- TOTAL BILIRUBIN [2]: 0.18 mg/dL
- TOTAL PROTEIN [2]: 6.02 G/DL
- URIC ACID [2]: 1.63 mg/dL
- ABSOLUTE BASOPHIL [3]: 0 CELLS/uL
- ABSOLUTE EOSINOPHIL [3]: 0 CELLS/uL
- ABSOLUTE LYMPHOCYTE [3]: 12123 CELLS/uL
- ABSOLUTE MONOCYTE [3]: 372 CELLS/uL
- ABSOLUTE SEGMENTED NEUTROPHIL [3]: 1505 CELLS/uL
- BASOPHIL [3]: 0%
- EOSINOPHIL [3]: 0%
- ERYTHROCYTE COUNT [3]: 5.61 x10E6/uL
- HEMATOCRIT [3]: 34.6%
- HEMOGLOBIN [3]: 13.67 G/DL
- LEUKOCYTE COUNT [3]: 14 x10E3/uL
- LYMPHOCYTE [3]: 86.67%
- MEAN CORPUSCULAR HEMOGLOBIN [3]: 24.47 pg
- MEAN CORPUSCULAR HEMOGLOBIN CONCENTRATION [3]: 39.53 G/DL
- MEAN CORPUSCULAR VOLUME [3]: 61.9 fL
- MONOCYTE [3]: 2.67%
- NEUTROPHIL [3]: 10.67%
- NUCLEATED RED BLOOD CELLS [3]: 0.33 /100WBC
- PLATELET COUNT [3]: 1267.33 x10E3/uL
- ALANINE AMINOTRANSFERASE [3]: 52 u/L
- ALBUMIN [3]: 4.13 G/DL
- ALKALINE PHOSPHATASE [3]: 425.33 u/L
- ASPARTATE AMINOTRANSFERASE [3]: 87 u/L
- BLOOD UREA NITROGEN [3]: 15.67 mg/dL
- CARBON DIOXIDE [3]: 26.67 mmol/L
- CHLORIDE [3]: 101.33 MEQ/L
- CHOLESTEROL [3]: 69 mg/dL
- CREATINE PHOSPHOKINASE [3]: 308 u/L
- CREATININE [3]: 0.17 mg/dL
- GLUCOSE [3]: 148.33 mg/dL
- LACTATE DEHYDROGENASE [3]: 190.67 u/L
- LIPASE [3]: 9 u/L
- PHOSPHORUS [3]: 12.47 mg/dL
- POTASSIUM [3]: 6.99 MEQ/L
- SODIUM [3]: 143.93 MEQ/L
- TOTAL BILIRUBIN [3]: 0.17 mg/dL
- TOTAL PROTEIN [3]: 5.8 G/DL
- URIC ACID [3]: 1.77 mg/dL
- ABSOLUTE BASOPHIL [4]: 0 CELLS/uL
- ABSOLUTE EOSINOPHIL [4]: 0 CELLS/uL
- ABSOLUTE LYMPHOCYTE [4]: 16690.33 CELLS/uL
- ABSOLUTE MONOCYTE [4]: 278.67 CELLS/uL
- ABSOLUTE SEGMENTED NEUTROPHIL [4]: 997.67 CELLS/uL
- BASOPHIL [4]: 0%
- EOSINOPHIL [4]: 0%
- ERYTHROCYTE COUNT [4]: 5.66 x10E6/uL
- HEMATOCRIT [4]: 34.53%
- HEMOGLOBIN [4]: 14.03 G/DL
- LEUKOCYTE COUNT [4]: 17.97 x10E3/uL
- LYMPHOCYTE [4]: 93%
- MEAN CORPUSCULAR HEMOGLOBIN [4]: 24.87 pg
- MEAN CORPUSCULAR HEMOGLOBIN CONCENTRATION [4]: 40.63 G/DL
- MEAN CORPUSCULAR VOLUME [4]: 61.17 fL
- MONOCYTE [4]: 1.33%
- NEUTROPHIL [4]: 5.67%
- NUCLEATED RED BLOOD CELLS [4]: 0.67 /100WBC
- PLATELET COUNT [4]: 1272 x10E3/uL
- ALANINE AMINOTRANSFERASE [4]: 53.33 u/L
- ALBUMIN [4]: 4.1 G/DL
- ALKALINE PHOSPHATASE [4]: 315 u/L
- ASPARTATE AMINOTRANSFERASE [4]: 72.33 u/L
- BLOOD UREA NITROGEN [4]: 18.33 mg/dL
- CARBON DIOXIDE [4]: 27.33 mmol/L
- CHLORIDE [4]: 100.33 MEQ/L
- CHOLESTEROL [4]: 84 mg/dL
- CREATINE PHOSPHOKINASE [4]: 186.33 u/L
- CREATININE [4]: 0.19 mg/dL
- GLUCOSE [4]: 146 mg/dL
- LACTATE DEHYDROGENASE [4]: 126.33 u/L
- LIPASE [4]: 10 u/L
- PHOSPHORUS [4]: 12.8 mg/dL
- POTASSIUM [4]: 6.96 MEQ/L
- SODIUM [4]: 145.2 MEQ/L
- TOTAL BILIRUBIN [4]: 0.2 mg/dL
- TOTAL PROTEIN [4]: 5.8 G/DL
- URIC ACID [4]: 1.43 mg/dL
